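Exposure lasted 48 hours, with cells grown in 96-well plates and compounds tested at five concentrations. GI50: concentration for 50% inhibition of growth.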 Active and inactive are the calls of the source. No stated cut-off is given here; in the data, active = GI50 up to about 1.1 µM and inactive = higher.
Key:
Assay in all cases: growth of human tumour cells (NCI), 48 h
SNB-75 = tested on: SNB-75
NCI/ADR-RES = tested on: NCI/ADR-RES
OVCAR-3 = tested on: OVCAR-3
MDA-MB-435 = tested on: MDA-MB-435
TK-10 = tested on: TK-10
UACC-62 = tested on: UACC-62
HCT-15 = tested on: HCT-15
SK-MEL-28 = tested on: SK-MEL-28
IGROV-1 = tested on: IGROV-1
MDA-N = tested on: MDA-N
NCI-H460 = tested on: NCI-H460
MDA-MB-231 = tested on: MDA-MB-231
UO-31 = tested on: UO-31
UACC-257 = tested on: UACC-257
DU-145 = tested on: DU-145
RXF 393 = tested on: RXF 393
K562 = tested on: K562
Hs-578T = tested on: Hs-578T
MOLT-4 = tested on: MOLT-4
SR = tested on: SR

COS(C)(=O)=O [METHANESULFONIC ACID METHYL ESTER]
GI50 (SNB-75): > 2000 nM (inactive) | GI50 (NCI/ADR-RES): > 2000 nM (inactive) | GI50 (OVCAR-3): > 2000 nM (inactive) | GI50 (MDA-MB-435): > 2000 nM (inactive) | GI50 (TK-10): > 2000 nM (inactive) | GI50 (UACC-62): > 2000 nM (inactive) | GI50 (HCT-15): > 2000 nM | GI50 (SK-MEL-28): > 2000 nM (inactive) | GI50 (IGROV-1): > 2000 nM (inactive) | GI50 (MDA-N): > 2000 nM (inactive) | GI50 (NCI-H460): > 2000 nM (inactive) | GI50 (MDA-MB-231): > 2000 nM (inactive) | GI50 (UO-31): > 2000 nM (inactive) | GI50 (UACC-257): > 2000 nM (inactive) | GI50 (DU-145): > 2000 nM (inactive) | GI50 (RXF 393): > 2000 nM (inactive) | GI50 (K562): > 2000 nM (inactive) | GI50 (Hs-578T): > 2000 nM (inactive) | GI50 (MOLT-4): > 2000 nM (inactive) | GI50 (SR): > 2000 nM (inactive)
